In the NIST ThermoML archive (doi:10.1021/je025657+):

COC(F)(F)C(F)(F)F [methyl pentafluoroethyl ether]
Conditions	mass density [kg/m3]
240 K, 142.7 kPa, Liquid	1425.44
240 K, 525.8 kPa, Liquid	1426.3
240 K, 1016.6 kPa, Liquid	1427.42
240 K, 1498.9 kPa, Liquid	1428.49
240 K, 2020 kPa, Liquid	1429.64
240 K, 2495.8 kPa, Liquid	1430.67
240 K, 3020.1 kPa, Liquid	1431.83
240 K, 3526.2 kPa, Liquid	1432.91
240 K, 4022.9 kPa, Liquid	1433.98
240 K, 4516.7 kPa, Liquid	1435.03
240 K, 5006.8 kPa, Liquid	1436.06
240 K, 5507.4 kPa, Liquid	1437.1
240 K, 6031.3 kPa, Liquid	1438.18
240 K, 6522.4 kPa, Liquid	1439.2
240 K, 6991.3 kPa, Liquid	1440.14
250 K, 508.4 kPa, Liquid	1401.06
250 K, 999.4 kPa, Liquid	1402.28
250 K, 1512.6 kPa, Liquid	1403.57
250 K, 1981.4 kPa, Liquid	1404.73
250 K, 2484.2 kPa, Liquid	1405.96
250 K, 3006.1 kPa, Liquid	1407.22
250 K, 3493.4 kPa, Liquid	1408.39
250 K, 4031.6 kPa, Liquid	1409.66
250 K, 4527.8 kPa, Liquid	1410.82
250 K, 5017.1 kPa, Liquid	1411.96
250 K, 5520.4 kPa, Liquid	1413.12
250 K, 5982.1 kPa, Liquid	1414.17
250 K, 6505.2 kPa, Liquid	1415.37
250 K, 6941.8 kPa, Liquid	1416.34
260 K, 86.5 kPa, Liquid	1374.31
260 K, 500.8 kPa, Liquid	1375.48
260 K, 1002.7 kPa, Liquid	1376.9
260 K, 1516.5 kPa, Liquid	1378.35
260 K, 2001 kPa, Liquid	1379.71
260 K, 2509.7 kPa, Liquid	1381.11
260 K, 3006.5 kPa, Liquid	1382.45
260 K, 3509.7 kPa, Liquid	1383.8
260 K, 4009.1 kPa, Liquid	1385.14
260 K, 4516.6 kPa, Liquid	1386.48
260 K, 5008.9 kPa, Liquid	1387.75
260 K, 5494.8 kPa, Liquid	1389
260 K, 6029.6 kPa, Liquid	1390.36
260 K, 6497.8 kPa, Liquid	1391.53
260 K, 6976.1 kPa, Liquid	1392.71
270 K, 526.2 kPa, Liquid	1348.82
270 K, 1033.1 kPa, Liquid	1350.45
270 K, 1545.3 kPa, Liquid	1352.07
270 K, 2026.1 kPa, Liquid	1353.57
270 K, 2522.2 kPa, Liquid	1355.11
270 K, 3044.2 kPa, Liquid	1356.7
270 K, 3549.7 kPa, Liquid	1358.22
270 K, 3956.7 kPa, Liquid	1359.43
270 K, 4491.8 kPa, Liquid	1360.99
270 K, 5023.1 kPa, Liquid	1362.54
270 K, 5514.7 kPa, Liquid	1363.95
270 K, 6030.4 kPa, Liquid	1365.42
270 K, 6512.4 kPa, Liquid	1366.76
270 K, 6977.7 kPa, Liquid	1367.99
280 K, 445.3 kPa, Liquid	1320.87
280 K, 957.2 kPa, Liquid	1322.76
280 K, 1474.3 kPa, Liquid	1324.63
280 K, 1861.1 kPa, Liquid	1326.03
280 K, 2459.7 kPa, Liquid	1328.12
280 K, 2951.9 kPa, Liquid	1329.83
280 K, 3497.7 kPa, Liquid	1331.69
280 K, 3963.9 kPa, Liquid	1333.26
280 K, 4513.2 kPa, Liquid	1335.09
280 K, 4981.9 kPa, Liquid	1336.62
280 K, 5492.2 kPa, Liquid	1338.26
280 K, 5847.1 kPa, Liquid	1339.41
280 K, 6466.8 kPa, Liquid	1341.37
280 K, 7194.3 kPa, Liquid	1343.64
290 K, 83.3 kPa, Liquid	1290.78
290 K, 504.8 kPa, Liquid	1292.57
290 K, 981.6 kPa, Liquid	1294.58
290 K, 1520.9 kPa, Liquid	1296.8
290 K, 2011.5 kPa, Liquid	1298.79
290 K, 2520.4 kPa, Liquid	1300.82
290 K, 2991.9 kPa, Liquid	1302.67
290 K, 3491.2 kPa, Liquid	1304.61
290 K, 4006.3 kPa, Liquid	1306.56
290 K, 4525.3 kPa, Liquid	1308.51
290 K, 4985.1 kPa, Liquid	1310.22
290 K, 5527.4 kPa, Liquid	1312.2
290 K, 6024.9 kPa, Liquid	1313.97
290 K, 6484.8 kPa, Liquid	1315.61
290 K, 6967.8 kPa, Liquid	1317.32
300 K, 45.7 kPa, Gas	2.84
300 K, 56.7 kPa, Gas	3.73
300 K, 82 kPa, Gas	5.31
300 K, 93.3 kPa, Gas	6.05
300 K, 98.2 kPa, Gas	6.15
300 K, 116.1 kPa, Gas	7.55
300 K, 131.7 kPa, Gas	8.6
300 K, 165.9 kPa, Gas	10.97
300 K, 188.8 kPa, Gas	12.58
300 K, 218.2 kPa, Gas	15.51
300 K, 225.7 kPa, Liquid	1260.66
300 K, 238.5 kPa, Liquid	1260.72
300 K, 491.2 kPa, Liquid	1262.72

Liquid
Conditions	mass density [kg/m3]
240 K	1425.22
250 K	1399.85
260 K	1374.2
270 K	1347.19
280 K	1319.62
290 K	1291.09
